According to paper PMC10876879, “Sustained silencing peanut allergy by xanthopurpurin is associated with suppression of peripheral and bone marrow IgE-producing B cell” (Frontiers in Immunology, 2024):
Values joined by “and” are separate entries in the source; they are usually repeats but may differ in a detail not shown here. Equal values may be shown once.

Legend:
[1] = tested on: PN-allergic C3H/HeJ mice; assay: Peanut-allergic mouse models (Model #1 systemic i.p. sensitization, early treatment; Model #2 oral sensitization, late treatment) with oral PN challenge; type: in vivo; details: for Time after stopping treatment at which protection from anaphylaxis persisted: model #1
[2] = tested on: IgE+ B cells; assay: Flow cytometry of IgE+ B cells in spleen and bone marrow of treated mice (Model #2); type: in vivo, C3H/HeJ mice; details: model #2, vs sham
Procedure: Single cell suspensions of spleen, bone marrow from two femurs and heparinized peripheral blood were isolated in AIM-V medium. Erythrocytes were lysed with red cell lysing buffer (Sigma-Aldrich, St. Louis, MO). For staining, cells were suspended in ice cold staining buffer (PBS including 0.5 mM EDTA, 0.05 mM Sodium Azide, 0.5% BSA). Surface staining was performed by incubating cells with unlabeled anti-IgE (to block membrane IgE), BV605 anti-B220, BV711-anti-CD3, anti-CD16/32 (Fc-block), all from BD Biosciences, CA). Live-dead discriminating dye (Live-Dead Aqua, Invitrogen, CA) was included. After incubation, cells were washed and suspended in fixation/permeabilization buffer for 15 mins. Cells were washed with permeabilization buffer and incubated with Fitc-anti IgE in permeabilization buffer for 30 mins in the dark on ice. After washing, cells were treated with Cytofix buffer for 15 mins for post-fixation and then washed 3 times with staining buffer and finally resuspended in 200 µL staining buffer for cell acquisition on LSRII flow cytometer (BD Bioscience, San Jose, CA). Flow cytometry analysis was performed using Flow Jo 5.4 software (Tree Star Inc., Ashland, Oregon) as follows. […] From live cell gate, all IgE+ (Fitc-IgE) cells were gated and subsequently analyzed for IgE+ B cells (Fitc-IgE +; BV605-B220+ cells).

[3] = tested on: naïve C3H/HeJ mice; assay: Acute toxicity assay; type: in vivo
Procedure: For acute toxicity analysis, naïve C3H/HeJ mice were fed with 4 mg of XPP per mouse, which is10 times of the daily dose. […] In the sub-chronic toxicity assay, naïve C3H/HeJ mice were fed with 5 times their daily therapeutic dose (2 mg/day) for 14 days. Control group mice (sham) were fed with water. Blood samples were collected at the end of each experiment. Blood urea nitrogen (BUN) and alanine aminotransferase (ALT) measurements for the evaluation of kidney and liver functions respectively and complete blood count (CBC) testing were performed by ALX laboratories, NY.

[4] = tested on: U266 cells; assay: RNA sequencing of XPP-treated U266 cells; type: cell-based, human; details: XPP 10 μg/mL, 3 days
Procedure: U266 cells were treated with XPP at 10 μg/mL. After 3 days of treatment, cells were collected and total RNA was isolated using Qiagen RNeasy MiniKits following the manufacturer’s instructions. The purity of total RNA was analyzed and the RNA-Seq was performed with an Illumina HiSeq2500 instrument at the Genomics Core facility at Icahn School of Medicine at Mount Sinai. Counts were converted to Log2 counts per million and normalized. A log2 fold change was calculated and the gene list with values ≥ 2 or ≤ -2 were uploaded to DAVID bioinformatic system for functional analysis.

[5] = model #1, 7 weeks after stopping therapy
[6] = orally sensitized mouse model #2
[7] = 10x dose (4 mg/mouse) once, observed 14 days

With `O=C1c2ccccc2C(=O)c2c(O)cc(O)cc21` [XPP, xanthopurpurin] the “Body temperatures after PN challenge” value ([1]; both models, 30 minutes after challenge, p < 0.001 vs. Sham) was “normal body temperatures”, the “Reduction of PN-specific IgE levels at challenge vs. sham” value ([1]; both models, oral XPP 400 µg/day) was > 80% and 75% and the “Plasma histamine levels after PN challenge” value ([1]; both models, p < 0.001) was “essentially normal plasma histamine levels”. The “Symptom scores following PN challenge” value ([1]; both models, score 0-5, p <0.001 vs. Sham) was 0, the “Time after stopping treatment at which protection from anaphylaxis persisted” value [1] was 5 weeks and the “Body temperatures, sustained effect” value [1, 5] was “increased”. For the same compound, the “PN-specific IgE levels, sustained effect” value [1, 5] was “significantly reduced”, the “Symptom scores, sustained effect” value [1, 5] was “significantly reduced” and the “Time after stopping treatment at which protection from anaphylaxis persisted” value ([1]; listed as xanthopurpurin) was 7 weeks. For the same compound, the “Fecal PN-specific IgA” value [1, 6] was “did not reduce”, the “Serum PN-specific IgG1” value [1, 6] was “did not reduce” and the “Serum PN-specific IgG2a” value [1, 6] was “did not reduce”. The “Percentage of IgE+ B cells (over all IgE+ cells) in bone marrow” value ([2]; p < 0.001) was “significantly reduced”, the “Percentage of IgE+ B cells (over all IgE+ cells) in spleen” value ([2]; p < 0.01) was “significantly reduced” and the “Deaths, abnormal behavior or diarrhea” value ([3]; 10 times (4 mg/day) once, observed daily for 14 days) was “No deaths and abnormal behavior or diarrhea were observed”. The Morbidity [3, 7] was 0.00%, the Mortality [3, 7] was 0.00% and the “Number of genes downregulated (RNA-Seq)” value [4] was 5094 genes. The “Number of genes upregulated (RNA-Seq)” value [4] was 4009 genes.
